Measurements published in ChEMBL document CHEMBL3784917, “Recent Progress in Histone Demethylase Inhibitors” (J Med Chem, 2016).

Columns and labels:
[1] = target: Lysine-specific demethylase 6B (Homo sapiens, UniProt O15054); assay: Inhibition of KDM6B (unknown origin) after 24 hrs by alphascreen assay
[2] = target: T1, Lysine-specific demethylase 4A (Homo sapiens, UniProt O75164)
T1 sequence (O75164 whole entry): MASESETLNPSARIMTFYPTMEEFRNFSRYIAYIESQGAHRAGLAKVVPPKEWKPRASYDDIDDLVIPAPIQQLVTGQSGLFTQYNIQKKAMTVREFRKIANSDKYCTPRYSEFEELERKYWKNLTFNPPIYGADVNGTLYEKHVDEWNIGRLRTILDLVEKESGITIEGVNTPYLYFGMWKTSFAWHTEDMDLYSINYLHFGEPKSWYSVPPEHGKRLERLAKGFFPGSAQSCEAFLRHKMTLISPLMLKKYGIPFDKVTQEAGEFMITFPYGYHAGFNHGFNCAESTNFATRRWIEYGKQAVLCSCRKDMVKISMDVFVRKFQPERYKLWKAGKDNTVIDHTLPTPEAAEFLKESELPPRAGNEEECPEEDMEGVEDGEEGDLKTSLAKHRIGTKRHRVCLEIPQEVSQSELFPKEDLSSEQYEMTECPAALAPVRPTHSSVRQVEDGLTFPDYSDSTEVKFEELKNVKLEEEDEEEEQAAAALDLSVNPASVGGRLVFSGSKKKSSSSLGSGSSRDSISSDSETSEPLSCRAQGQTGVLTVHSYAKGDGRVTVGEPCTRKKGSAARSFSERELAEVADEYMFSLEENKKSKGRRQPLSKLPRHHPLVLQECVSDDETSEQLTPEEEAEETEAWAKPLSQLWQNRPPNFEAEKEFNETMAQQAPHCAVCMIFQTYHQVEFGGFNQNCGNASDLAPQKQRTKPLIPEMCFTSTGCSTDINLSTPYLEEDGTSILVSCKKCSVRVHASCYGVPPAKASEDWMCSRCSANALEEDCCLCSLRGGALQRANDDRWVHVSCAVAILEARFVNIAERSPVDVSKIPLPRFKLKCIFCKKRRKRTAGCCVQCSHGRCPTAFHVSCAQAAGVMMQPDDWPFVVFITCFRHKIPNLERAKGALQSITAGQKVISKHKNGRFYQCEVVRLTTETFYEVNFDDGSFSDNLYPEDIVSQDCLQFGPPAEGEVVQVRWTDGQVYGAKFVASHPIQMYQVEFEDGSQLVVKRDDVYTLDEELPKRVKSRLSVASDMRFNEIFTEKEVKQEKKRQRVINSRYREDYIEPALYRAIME

[3] = target: T2, Lysine-specific demethylase 5C (Homo sapiens, UniProt P41229); assay: Inhibition of KDM5C (unknown origin) after 24 hrs by alphascreen assay
T2 sequence (P41229 whole entry, the tested form may be a part): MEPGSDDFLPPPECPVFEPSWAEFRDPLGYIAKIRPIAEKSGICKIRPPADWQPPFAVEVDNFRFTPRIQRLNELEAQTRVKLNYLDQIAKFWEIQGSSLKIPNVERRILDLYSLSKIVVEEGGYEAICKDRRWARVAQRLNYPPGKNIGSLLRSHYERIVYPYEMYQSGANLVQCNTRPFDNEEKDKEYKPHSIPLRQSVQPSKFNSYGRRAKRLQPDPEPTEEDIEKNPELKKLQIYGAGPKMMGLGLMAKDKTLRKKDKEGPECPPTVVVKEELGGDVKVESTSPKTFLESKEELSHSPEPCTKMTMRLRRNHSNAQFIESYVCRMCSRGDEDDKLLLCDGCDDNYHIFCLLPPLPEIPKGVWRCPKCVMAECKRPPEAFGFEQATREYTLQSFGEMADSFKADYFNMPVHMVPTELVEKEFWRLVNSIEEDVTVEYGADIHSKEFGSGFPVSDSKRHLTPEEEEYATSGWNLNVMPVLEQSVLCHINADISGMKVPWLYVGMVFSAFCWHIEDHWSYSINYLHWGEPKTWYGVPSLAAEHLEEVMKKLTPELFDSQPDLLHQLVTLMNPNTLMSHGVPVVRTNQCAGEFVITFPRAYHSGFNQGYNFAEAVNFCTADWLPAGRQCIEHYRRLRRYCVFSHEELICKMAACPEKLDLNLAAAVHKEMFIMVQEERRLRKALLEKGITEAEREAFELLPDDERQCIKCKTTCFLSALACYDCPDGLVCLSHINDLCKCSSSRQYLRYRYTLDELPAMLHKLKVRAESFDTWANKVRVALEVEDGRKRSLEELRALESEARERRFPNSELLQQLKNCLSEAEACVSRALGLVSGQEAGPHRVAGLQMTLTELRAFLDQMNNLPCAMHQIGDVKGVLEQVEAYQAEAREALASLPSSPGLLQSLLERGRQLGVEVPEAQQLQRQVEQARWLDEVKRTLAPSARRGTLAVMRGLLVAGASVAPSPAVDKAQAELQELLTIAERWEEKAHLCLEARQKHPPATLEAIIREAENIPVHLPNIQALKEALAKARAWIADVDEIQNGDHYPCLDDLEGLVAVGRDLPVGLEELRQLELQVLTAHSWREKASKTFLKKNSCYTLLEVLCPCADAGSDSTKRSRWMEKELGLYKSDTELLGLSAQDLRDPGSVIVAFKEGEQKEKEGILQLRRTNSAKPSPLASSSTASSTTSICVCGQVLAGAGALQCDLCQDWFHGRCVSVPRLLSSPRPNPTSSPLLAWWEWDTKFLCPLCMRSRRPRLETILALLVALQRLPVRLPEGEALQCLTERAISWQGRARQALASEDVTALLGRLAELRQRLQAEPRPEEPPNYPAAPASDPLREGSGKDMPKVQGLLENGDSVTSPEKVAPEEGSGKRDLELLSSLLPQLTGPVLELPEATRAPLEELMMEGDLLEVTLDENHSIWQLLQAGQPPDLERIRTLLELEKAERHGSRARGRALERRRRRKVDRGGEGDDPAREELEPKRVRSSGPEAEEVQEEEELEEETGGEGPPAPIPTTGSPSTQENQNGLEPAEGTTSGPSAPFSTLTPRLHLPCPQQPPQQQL

Egl nine homolog 1 = Egl nine homolog 1 (Homo sapiens, UniProt Q9GZT9); assay: Inhibition of PHD2 catalytic domain (unknown origin) after 24 hrs by alphascreen assay
Sequence of Egl nine homolog 1 (Q9GZT9 whole entry, the tested form may be a part): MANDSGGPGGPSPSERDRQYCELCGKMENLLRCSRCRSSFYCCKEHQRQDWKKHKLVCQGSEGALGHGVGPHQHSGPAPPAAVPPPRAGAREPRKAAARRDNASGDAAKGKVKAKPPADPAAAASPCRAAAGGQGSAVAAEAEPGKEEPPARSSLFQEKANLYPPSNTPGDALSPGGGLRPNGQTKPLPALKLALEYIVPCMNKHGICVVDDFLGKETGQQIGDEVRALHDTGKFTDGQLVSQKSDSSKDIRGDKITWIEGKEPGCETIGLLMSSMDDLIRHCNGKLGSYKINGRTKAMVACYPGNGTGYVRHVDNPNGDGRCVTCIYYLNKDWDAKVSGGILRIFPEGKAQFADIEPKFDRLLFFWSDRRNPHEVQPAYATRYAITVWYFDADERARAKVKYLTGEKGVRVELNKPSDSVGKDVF

[4] = target: T2, Lysine-specific demethylase 5C
[5] = target: T1, Lysine-specific demethylase 4A; assay: Inhibition of KDM4A in human MCF7 cells assessed as increase in H3K9me3 level after 24 hrs by DAPI staining based immunofuorescence assay; format: cell-based
[6] = Inhibition of FIH (unknown origin) using ankyrin peptide substrate preincubated for 5 mins followed by substrate addition measured after 5 mins MALDI-TOF mass spectrometric analysis; set-up: species or system Homo sapiens
[7] = target: T3, Lysine-specific demethylase 3A (Homo sapiens, UniProt Q9Y4C1); assay: Inhibition of KDM3A (unknown origin) preincubated for 15 mins followed by histone substrate addition measured after 1 hr by alphascreen assay
T3 sequence (Q9Y4C1 whole entry): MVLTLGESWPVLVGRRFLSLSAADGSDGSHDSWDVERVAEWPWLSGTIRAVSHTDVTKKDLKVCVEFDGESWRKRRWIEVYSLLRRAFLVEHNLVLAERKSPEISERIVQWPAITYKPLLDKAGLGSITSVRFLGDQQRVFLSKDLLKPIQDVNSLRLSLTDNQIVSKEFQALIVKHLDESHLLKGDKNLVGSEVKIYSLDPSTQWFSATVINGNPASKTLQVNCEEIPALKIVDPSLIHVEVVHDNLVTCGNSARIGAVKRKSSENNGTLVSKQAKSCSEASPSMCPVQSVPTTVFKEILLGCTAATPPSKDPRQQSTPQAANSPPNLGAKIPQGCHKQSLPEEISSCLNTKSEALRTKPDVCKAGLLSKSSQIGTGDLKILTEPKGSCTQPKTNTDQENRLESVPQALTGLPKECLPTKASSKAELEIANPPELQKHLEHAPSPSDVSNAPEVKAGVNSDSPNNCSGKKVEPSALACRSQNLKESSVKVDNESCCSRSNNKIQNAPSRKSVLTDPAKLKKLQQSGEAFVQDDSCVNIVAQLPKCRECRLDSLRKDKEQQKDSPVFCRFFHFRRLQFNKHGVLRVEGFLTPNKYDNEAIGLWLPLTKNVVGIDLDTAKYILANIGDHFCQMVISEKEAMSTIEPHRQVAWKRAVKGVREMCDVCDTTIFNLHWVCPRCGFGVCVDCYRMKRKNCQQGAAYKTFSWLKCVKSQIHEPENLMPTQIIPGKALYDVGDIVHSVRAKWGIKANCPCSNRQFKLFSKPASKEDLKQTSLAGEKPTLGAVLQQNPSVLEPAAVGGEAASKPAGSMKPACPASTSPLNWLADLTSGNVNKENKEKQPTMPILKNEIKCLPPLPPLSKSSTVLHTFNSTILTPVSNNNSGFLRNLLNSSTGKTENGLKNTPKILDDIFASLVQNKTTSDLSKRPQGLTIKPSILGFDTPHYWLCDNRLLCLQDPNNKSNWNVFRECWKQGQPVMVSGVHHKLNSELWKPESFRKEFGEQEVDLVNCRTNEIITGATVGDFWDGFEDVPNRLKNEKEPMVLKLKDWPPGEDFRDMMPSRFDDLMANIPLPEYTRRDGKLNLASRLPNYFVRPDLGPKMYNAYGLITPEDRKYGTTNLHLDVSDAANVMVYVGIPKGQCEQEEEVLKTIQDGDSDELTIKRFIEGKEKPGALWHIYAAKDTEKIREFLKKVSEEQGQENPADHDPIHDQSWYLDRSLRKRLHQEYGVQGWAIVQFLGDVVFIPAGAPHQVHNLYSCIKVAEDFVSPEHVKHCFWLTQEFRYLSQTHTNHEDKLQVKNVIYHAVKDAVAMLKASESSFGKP

[8] = Antiproliferative activity against human NALM6 cells assessed as reduction in cell viability after 120 hrs by ATPlite assay; format: functional, cell-based; details: NALM-6, 120 h
[9] = Antiproliferative activity against human KMS-12-BM cells assessed as reduction in cell viability after 120 hrs by ATPlite assay; format: functional, cell-based
[10] = Antiproliferative activity against human SU-DHL6 cells assessed as reduction in cell viability after 120 hrs by ATPlite assay; format: functional, cell-based; details: SU-DHL-6, 120 h
[11] = Antiproliferative activity against human MM1S cells assessed as reduction in cell viability after 120 hrs by ATPlite assay; format: functional, cell-based; details: MM1.S

Sequence of Lysine-specific demethylase 6B (O15054 whole entry): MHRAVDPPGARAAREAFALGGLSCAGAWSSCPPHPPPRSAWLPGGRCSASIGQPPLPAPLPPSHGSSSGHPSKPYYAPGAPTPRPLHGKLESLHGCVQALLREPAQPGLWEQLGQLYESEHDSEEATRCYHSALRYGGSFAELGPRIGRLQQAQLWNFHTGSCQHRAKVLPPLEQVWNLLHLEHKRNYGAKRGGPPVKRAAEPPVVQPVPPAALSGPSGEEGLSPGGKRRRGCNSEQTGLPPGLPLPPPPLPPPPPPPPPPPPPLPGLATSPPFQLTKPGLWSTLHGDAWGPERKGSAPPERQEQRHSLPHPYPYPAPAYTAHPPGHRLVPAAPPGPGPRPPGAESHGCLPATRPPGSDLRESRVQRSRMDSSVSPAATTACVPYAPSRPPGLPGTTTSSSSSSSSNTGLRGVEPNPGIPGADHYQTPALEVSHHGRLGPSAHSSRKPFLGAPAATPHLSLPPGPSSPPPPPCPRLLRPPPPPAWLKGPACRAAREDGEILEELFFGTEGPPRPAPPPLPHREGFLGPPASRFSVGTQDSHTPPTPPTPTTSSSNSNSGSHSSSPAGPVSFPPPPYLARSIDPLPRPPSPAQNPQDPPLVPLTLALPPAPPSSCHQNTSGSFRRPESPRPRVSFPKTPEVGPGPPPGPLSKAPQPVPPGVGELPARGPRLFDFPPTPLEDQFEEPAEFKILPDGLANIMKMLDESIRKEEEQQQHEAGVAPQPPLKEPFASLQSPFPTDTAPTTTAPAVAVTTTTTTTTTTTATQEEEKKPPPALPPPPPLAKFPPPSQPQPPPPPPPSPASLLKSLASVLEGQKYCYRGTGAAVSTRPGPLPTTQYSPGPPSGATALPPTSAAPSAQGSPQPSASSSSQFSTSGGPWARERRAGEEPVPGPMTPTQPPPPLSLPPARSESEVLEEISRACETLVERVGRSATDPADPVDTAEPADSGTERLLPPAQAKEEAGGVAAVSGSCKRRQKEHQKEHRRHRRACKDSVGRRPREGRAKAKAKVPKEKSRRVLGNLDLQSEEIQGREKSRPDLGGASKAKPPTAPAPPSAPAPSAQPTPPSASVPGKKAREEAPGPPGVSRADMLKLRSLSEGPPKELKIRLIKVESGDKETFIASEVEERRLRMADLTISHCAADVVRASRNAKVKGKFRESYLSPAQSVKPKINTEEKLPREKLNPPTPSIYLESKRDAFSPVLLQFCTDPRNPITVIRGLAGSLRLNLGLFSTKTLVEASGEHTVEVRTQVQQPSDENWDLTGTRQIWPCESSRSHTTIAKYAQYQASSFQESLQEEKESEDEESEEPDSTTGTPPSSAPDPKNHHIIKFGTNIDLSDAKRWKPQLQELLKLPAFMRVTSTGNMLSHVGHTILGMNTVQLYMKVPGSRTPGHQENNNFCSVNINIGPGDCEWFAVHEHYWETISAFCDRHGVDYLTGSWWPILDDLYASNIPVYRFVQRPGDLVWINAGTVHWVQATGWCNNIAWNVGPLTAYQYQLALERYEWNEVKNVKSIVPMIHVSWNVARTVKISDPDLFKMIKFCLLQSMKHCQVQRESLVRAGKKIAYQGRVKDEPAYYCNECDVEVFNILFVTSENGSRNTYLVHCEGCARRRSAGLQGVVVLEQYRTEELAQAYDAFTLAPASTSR

CCCCCCCCOC(=O)c1ccc(O)c2ncccc12
IC50 [1]: > 100 µM
EC50 [2]: 3.8 µM
IC50 [3]: > 100 µM
IC50 (Egl nine homolog 1): > 100 µM

CCN(CCN(C)C)C(=O)CNCc1cc(C(=O)O)ccn1
IC50 [4]: 1 µM

Cc1ccsc1C(NC(=O)c1ccccc1)c1cc(Cl)c2cccnc2c1O (racemic)
EC50 [5]: 12 µM
IC50 [6]: > 100 µM
IC50 [7]: 191 µM

CCN(CC)CCCCNCc1cc(C=O)ccn1
EC50 [8]: < 0.25 µM

CCN(CCN(C)C)C(=O)CNCc1cc(CNC(=O)C(F)(F)F)ccn1
EC50 [9]: < 0.25 µM
EC50 [10]: < 0.25 µM
EC50 [11]: < 0.25 µM
